According to patent US20220403048A1, “BINDING MOLECULES TO ARGINASE II [ARG2]” (Cancer Research Technology Limited, priority 2019, published 2022):
Positions count from the first letter of the chain named. Read-outs that look alike come from different tables or passages of the source. Marks after values point to notes of the source that are not given here.

Assays:
both ARG isoforms = details: cited from earlier work; for Kd: both ARG isoforms at physiologic pH, read-out: binding constant (KD)
trimeric human ARG2 = target: T1, trimeric human ARG2 (Homo sapiens, UniProt P78540); assay: Human trimeric ARG2 enzyme inhibition assay (urea production); assay type: biochemical
T1 construct: human ARG2 (aa23-354); His10 (C); made in house; host or cells: E. coli BL21 (DE3)
T1 sequence (P78540 23-354): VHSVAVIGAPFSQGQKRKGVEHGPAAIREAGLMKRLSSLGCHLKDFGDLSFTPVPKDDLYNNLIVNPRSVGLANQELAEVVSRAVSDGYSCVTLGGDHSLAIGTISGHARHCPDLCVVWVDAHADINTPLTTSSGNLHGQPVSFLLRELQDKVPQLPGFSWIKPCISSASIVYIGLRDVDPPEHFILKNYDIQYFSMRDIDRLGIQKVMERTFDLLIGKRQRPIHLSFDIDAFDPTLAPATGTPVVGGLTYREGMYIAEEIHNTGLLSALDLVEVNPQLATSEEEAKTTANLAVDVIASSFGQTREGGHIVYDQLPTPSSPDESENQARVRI
Experimental: Unpurified anti-ARG2 scFv fragments from periplasmic preparations were screened in an ARG2 enzyme inhibition assay using a Pherastar plate reader (BMG Labtech, Germany). In this assay, the ability of unpurified scFv to inhibit the enzymatic activity of trimeric ARG2 was determined by measuring the production of urea, the product of L-arginine turnover by ARG2.
Selection outputs were screened as unpurified bacterial periplasmic extracts containing scFv, prepared in 200 mM TES buffer pH 7.4, 0.5 mM EDTA and 0.5 M sucrose. 10 μl of unpurified scFv were added to a Greiner Bio-One® 384 well assay plate (Greiner Bio-one, UK; cat: 781901). […]
Urea was detected by the simultaneous addition of equal volumes of O-Phthaldialdehyde (1.5 mM O-Phthaldialdehyde, 7% H2SO4, 0.03% Brij L23) and N-(1-Napthyl)ethylenediamine (1.66 mM N-(1-Napthyl)ethylenediamine, 81 mM Boric acid, 21% H2SO4, 0.03% Brij L23) followed by an 18 minute incubation at room temperature before the colorimetric product was quantified on the Pherastar by measuring absorbance at 505 nm. […]
Data were analysed by calculating % maximum (max) control for each sample using the 505 nm absorbance data. % max control was determined according to equation 2. […]
Data were again analysed by calculating % Max control values for each sample. […]

ARG2 [1] = target: T2, ARG2 (Homo sapiens, UniProt P78540); assay: T cell proliferation assay (BrdU, 72 hours) with exogenous ARG2; assay type: cell-based; details: In Absence of rhARG2
T2 sequence (P78540 23-354): T1 sequence (P78540 23-354)
Experimental: (§1) This assay served to provide in vitro evidence of functional efficacy for each antibody.
(§2) Briefly, Leukocyte cones (NHS Blood and Transplant, Watford, UK) underwent Ficoll Plaque (GE, Sweden; Cat: 17-1440-02) gradient separation, PBMC's were extracted and pan T cell population isolated by negative selection using the Human T Cell Enrichment Kit (Stemcell Technologies, France; Cat: 19051) according to the manufacturer's instructions.
(§3) 40000 cells/well were seeded in complete growth media (RMPI 1640, 5% Human Serum Albumin) into a 96 well clear TC treated microplate (Greiner-Bio One, Germany; Cat: 655180). T Cells were activated by the addition of ImmunoCult CD3/CD28 (Stemcell Technologies, France; Cat: 10971) at a dilution of 1:40 directly into wells and the plate incubated 37° C., 5% CO2 for 45 minutes.
(§4) To determine EC50's of test antibodies, a dilution series was created in sterile TBS at 8× the final assay concentration was added to the assay plate containing cells. Plate was incubated for 30 minutes at 37° C., 5% CO2.
(§5) ARG2 was added to relevant wells of the plate at a final concentration of 15 μg/ml. The equivalent volume of ARG2 vehicle and test antibody vehicle was added to relevant control wells. […]
(§6) Calculated data was expressed as % of control (Equation 3) and graphical plots were constructed using a four parameter fit and EC50's determined using model 205 in XLFit (IDBS, UK). […]

monomeric ARG2 = target: T3, monomeric ARG2 (Homo sapiens, UniProt P78540, E275Q); assay: Human monomeric ARG2 enzyme inhibition assay; assay type: biochemical; details: purified recombinant human IgG1, FIG. 5
T3 construct: human ARG2 (aa23-354); His10 (C); made in house; host or cells: E. coli
T3 sequence (P78540 23-354 E275Q): T1 sequence (P78540 23-354) with E253Q
Experimental: ARG2 specific recombinant IgG1 were screened for their ability to inhibit enzymatic activity of monomeric ARG2. In this assay, the ability of ARG2 specific recombinant IgG1 to inhibit the enzymatic activity of monomeric ARG2 was determined by measuring the production of urea, the product of L-arginine turnover by monomeric ARG2.
IC50 values were determined by testing a dilution series of the ARG2 specific recombinant IgG1, prepared in TBS.
10 μl of ARG2 specific recombinant IgG1 (dilution series) were added to a Greiner Bio-One® 384 well assay plate (Greiner Bio-one, UK; cat: 781901). […]
Urea was detected by the simultaneous addition of equal volumes of O-Phthaldialdehyde (1.5 mM O-Phthaldialdehyde, 7% H2SO4, 0.03% Brij L23) and N-(1-Napthyl)ethylenediamine (1.66 mM N-(1-Napthyl)ethylenediamine, 81 mM Boric acid, 21% H2SO4, 0.03% Brij L23) followed by an 18 minute incubation at room temperature before the colorimetric product was quantified on the Pherastar by measuring absorbance at 505 nm.
ARG2 specific recombinant IgG1 were tested alongside N-Hydroxyl-L-Arginine (a small molecule competitive inhibitor of ARG2) as a positive control and NIP228 (irrelevant isotype control antibody) as a negative control. Data points were plotted and IC50 values determined using a four parameter fit in GraphPad Prism (FIG. 5).

[2] = target: T4, THP-1 lysate derived human trimeric ARG2 (Homo sapiens, UniProt P78540); assay: THP-1 lysate derived human ARG2 enzyme inhibition assay; assay type: biochemical
T4 construct: expressed in transfected cells; host or cells: THP-1 cells overexpressing human ARG2 (cell lysate)
T4 sequence (P78540 23-354): T1 sequence (P78540 23-354)
Experimental: Anti-ARG2 IgGs were tested for their ability to inhibit mammalian expressed human ARG2 produced in transfected THP-1 cells. To do this cell lysates were prepared from THP-1 cells overexpressing human ARG2 and from wild type THP-1 cells. 350 million cells were suspended in 3 ml tris buffered saline (25 mM Tris+150 mM sodium chloride in dH2O, pH 7.4) and cell lysates prepared by passing through a 26G needle 20 times. A BCA assay was used to measure the protein concentration in the lysate. […] Antibodies were tested alongside N-Hydroxyl-L-Arginine (a small molecule competitive inhibitor of ARG2) as a positive control and CEA6 (irrelevant isotype control antibody) as a negative control. Data points were plotted and IC50 values determined using a four parameter fit in GraphPad Prism (FIG. 11, Table 13).
Anti-ARG2 IgGs were tested for their ability to inhibit to mammalian expressed human ARG2 produced in transfected THP-1 cells. […] Urea detection reagents, O-Phthaldialdehyde (1.5 mM O-Phthaldialdehyde, 7% H2SO4, 0.03% Brij L23) and N-(1-Napthyl)ethylenediamine (1.66 mM N-(1-Napthyl)ethylenediamine, 81 mM Boric acid, 21% H2SO4, 0.03% Brij L23) were mixed 1:1 just prior to use and 80 μl/well were added, incubated for 1 hour at room temperature and absorbance at 505 nm was read on a Pherastar plate reader. […]

ARG2 [3] = target: T2, ARG2; assay: T cell proliferation assay (BrdU, 72 hours) with exogenous ARG2; assay type: cell-based; set-up: human ARG2 (aa23-354); His10 (C); made in house; host or cells: E. coli BL21 (DE3); details: In Presence of rhARG2, NHLA value at 0.444 mM
Experimental: as §1, §2, §3, §4, §5, §6

Compound: N=C(N)NCCC[C@H](N)C(=O)O [L-arginine]
- Km (both ARG isoforms; natural substrate of arginase): 5 mM

Compound: N[C@@H](CSCCB(O)O)C(=O)O [BEC, S-(2-boronoethyl)-L-cysteine]
- Kd (both ARG isoforms): ~300 nM

Compound: NC(=NO)NCCC[C@H](N)C(=O)O [NHLA, NG-Hydroxy-L-arginine, reference compound]
- inhibition of the activity of human trimeric ARG2 (trimeric human ARG2; purified recombinant human IgG1, FIG. 3): able to inhibit
- inhibition of the activity of human trimeric ARG2 (trimeric human ARG2; purified scFv, FIG. 2): able to inhibit
- EC50 (ARG2 [1]): < 1800 nM
- Maximum % Proliferation (ARG2 [1]): 80%
- inhibition of the activity of human monomeric ARG2 (monomeric ARG2): able to inhibit
- IC50 ([2]; methods of section 2.8, FIG. 16, read-out: THP-1 ARG2 EIA IC50): 12900 nM
- IC50 ([2]; recombinant human IgG1, lysate without plasma (section 3.3), FIG. 13, read-out: THP-1 lysate ARG2 EIA IC50): 4750 nM
- Maximum % Proliferation (ARG2 [3]): 49* %

Compound: N[C@@H](CCCCB(O)O)C(=O)O [ABH, 2(S)-amino-6-boronohexanoic acid]
- Kd (both ARG isoforms): ~300 nM
